Measurements from US6864271B2, “Synergistic combinations including N-acylated 4-hydroxyphenylamine derivatives” (The Foundation for the LSU Health Sciences Center, priority 2002, dated 2005).

Columns and labels:
[1] = test system: mice; test: abdominal stretch assay (i.p. acetic acid); format: in vivo, mouse; details: oral, FIG. 1; for number of abdominal stretches (percentage of control): 55 min before i.p. 10 ml/kg 0.4% acetic acid, counted 10 min
[2] = background statement; cited from earlier work
[3] = background statement; cited from earlier work; remark: listed apart in the source
[4] = test system: C57/b16 mice; test: hepatotoxicity study, transaminase activity after oral dosing; details: 24 hours after oral dose in corn oil; acetaminophen/SCP-1 3.7 mmole/kg, codeine 50 mg/kg; FIG. 3
[5] = test system: mice; details: background statement; cited from earlier work
[6] = test system: mice; details: cited from earlier work
[7] = test system: C57/b16 mice; details: prior work (Paul et al., 1998; Bazan patents); cited from earlier work

Row | Compound | analgesic potency compared with acetaminophen ([1]; abdominal stretch assay, mice) | number of abdominal stretches (percentage of control) [1] | potency compared with acetaminophen, Freund's adjuvant-induced inflammation [2] | potency compared with acetaminophen, formalin [3] | GPT activity in serum [4] | potency compared with acetaminophen, abdominal stretch [5] | toxicity compared with acetaminophen ([6]; Paul et al., 1998) | hepatotoxicity [7] | LD50 ([6]; mice) [mmol/kg]
1 | O=C(CN1C(=O)c2ccccc2S1(=O)=O)Nc1ccc(O)cc1 [SCP-1] | significantly greater than acetaminophen | dose-dependent decrease | more potent | more potent | neither SCP-1 nor codeine, nor the combination of both, produced any significant increase | more potent | lower in toxicity | lower in hepatotoxicity | –
2 | CC(=O)Nc1ccc(O)cc1 [acetaminophen, reference compound] | – | dose-dependent decrease | – | – | – | – | – | – | 3.7
3 | COc1ccc2c3c1O[C@H]1[C@@H](O)C=C[C@H]4[C@@H](C2)N(C)CC[C@@]341 [codeine, reference compound] | – | dose-dependent decrease | – | – | neither SCP-1 nor codeine, nor the combination of both, produced any significant increase | – | – | – | –
